Data as given in patent publication US20210261507A1, “Crystalline Form of Fluopyram” (Bayer Aktiengesellschaft, priority 2018, published 2021).
Several values for one entry are separate records, joined by “and”; a condition that tells them apart may be missing. Identical values can stand only once.

Assays:
Assay type in all cases: physicochemical
[1] = EC formulation diluted in water and evaporated on the leaf surface, crystal habit; conditions: dilution at 1% in water
Method: In an example an EC formulation was prepared by dissolving 1 to 500 g/L of fluopyram in a mixture comprising a certain amount of emulsifiers and a certain amount of solvent.

[2] = Ageing of fluopyram suspension concentrate, crystal habit; conditions: 500 g/L suspension concentrate, 1 month at 40 to 45° C.
Method: In an example 500 g/L of fluopyram crystalline active ingredient was added to a mixture of 65 g/L wetters and dispersants, 80 g/L propylene glycol, 2 g/L silicone antifoam in 432 g/L with high shear mixing (Ultra-Turrax®) to reduce the particle size D(v,0.9) to approximately 50 microns, then passed through a bead mill (Eiger® 250 Mini Motormill) to achieve a particles size D(v,0.9) typically 1 to 15 microns. Then a gel composed of 2.4 g/L xanthan and 1 g/L biocide in 117 g/L water was added with low shear mixing (stirrer).

[3] = Aspect ratio of crystals measured from microscopic images of suspension concentrate formulations; conditions: for Aspect ratio, mean: mean of 10 crystals, tables 5.1 to 5.4; for Crystal shape (FIGS. 3a-3d): microscopic images
Method: In an example the aspect ratio for crystals of fluopyram and other different active ingredients was measured from microscopic images taken from suspension concentrate formulations after crystal growth had occurred, diluted to approximately 1% in water. For the purpose of this invention the length is defined as the longest dimension and the width as the shortest dimension of a 2-dimensional image obtained in a transmission optical microscope. The aspect ratio was determine by the dividing the length by the width.

[4] = Table 6, crystals present in suspension concentrate formulations, from tables 5.1 to 5.4

In the case of O=C(NCCc1ncc(C(F)(F)F)cc1Cl)c1ccccc1C(F)(F)F [fluopyram, N-{2-[3-chloro-5-(trifluoromethyl)-2-pyridyl]ethyl}-α,α,α-trifluoro-o-tolu amide], the “Crystals produced after dilution and evaporation” value [1] is reported as “needle shaped crystals”, the “Crystal appearance after ageing” value [2] is reported as “needle-like appearance” and the Aspect ratio [3, 4] is reported as 12.02. For the same compound, the “Aspect ratio, mean” value [3] was 12.02 and the “Crystal shape (FIGS. 3a-3d)” value [3] was “needle-like habit”.
For Cc1cc(C)nc(Nc2ccccc2)n1 [pyrimethanil], the Aspect ratio [3, 4] was 1.44, the “Aspect ratio, mean” value [3] was 1.44 and the “Crystal shape (FIGS. 3a-3d)” value [3] was “cubic shaped forms”.
For CC(C)(C)C(O)(CCc1ccc(Cl)cc1)Cn1cncn1 (stereo not drawn) [tebuconazole], the Aspect ratio [3, 4] was 1.15, the “Aspect ratio, mean” value [3] was 1.15 and the “Crystal shape (FIGS. 3a-3d)” value [3] was “cubic shaped forms”. The Aspect ratio ([3]; single crystals, length divided by width) was 1.00 and 1.20 and 1.30 and 1.02 and 1.22 and 0.83 and 1.07 and 1.44.
In the case of CON=C(C(=O)OC)c1ccccc1CON=C(C)c1cccc(C(F)(F)F)c1 [trifloxystrobin], the Aspect ratio [3, 4] is reported as 1.25, the “Aspect ratio, mean” value [3] is reported as 1.25 and the “Crystal shape (FIGS. 3a-3d)” value [3] is reported as “cubic shaped forms”.
